Measured values taken from patent US6649647B1, “Trioxane derivatives” (priority 1998, dated 2003).

Experiments:
Type in all cases: cell-based
[1] = system: human colon cancer cell line SW 480; assay: Growth inhibition assay (MTT), SW 480; conditions: Table VI, 6 days incubation
Description: (§1) As another example of evaluation of cytotoxicity, cancer cell lines were also used for a growth inhibition assay. The human colon cancer cell lines SW 480 and HT 29 and the murine melanoma cell line B16F10 were used. […] After confluent growth, the cells were trypsinated and resuspended in RPMI plus 10% FCS to a cell concentration of 50000 cells per ml in case of colon cancer cell lines and 20000 in case of B16F10. 100 μl of this cell suspension were transferred in each well of a 96 well microtiter plate and incubated for 1 day at 37° C. in a CO2-incubator. Subsequently, further 100 μl RPMI medium and 1 μl of a DMSO solution, containing the artemisinin derivatives were added. The growth inhibition was estimated after 6 days incubation at 36° C. using the MTT assay.
(§2) 25 μl MTT solution (3-(4,5-dimethylthiazol-2-yl)-2,5-diphenyltetrazolium-bromid) of a starting concentration of 5 mg/ml H2O were added and incubated at 37° C. for 5 h. Subsequently, 100 μl iso-propanol per well were added. After 15 min incubation 100 μl H2O were added. After 30 min shaking, the extinction was measured at 595 nm using a ELISA-Multiplate Reader.

[2] = system: human colon cancer cell line HT 29; assay: Growth inhibition assay (MTT), HT 29; conditions: Table VI, 6 days incubation
Description: as §1, §2

[3] = system: murine melanoma cell line B16F10; assay: Growth inhibition assay (MTT), B16F10; conditions: Table VI, 6 days incubation
Description: as §1, §2

[4] = system: Rat 6 subclone of the immortalized F2408 embryo cell line (R6); assay: Screening for cytotoxicity, cell count by Coulter Counter, R6 cells; conditions: for LD50 (Day 3) R6: day 3 after addition; for LD50 (Day 6) R6: day 6 after addition
Description: (§3) Compounds of the invention were screened against Rat 6 subclone of the immortalized F2408 embryo cell line, and Rat 6 (R6T24) cells transfected and transformed by a c-H-ras oncogene. The screening involved placing the R6 and R6T24 cell lines plated at 10^3 cells per well into a 12-well microtiter culture plate for 24 hours. The compounds were added at final concentrations from 0.1-100 μM, and cells were trypsized and counted by Coulter Counter at day 3 and day 6 after the addition. Untreated cells were assigned a survival value of 100%.

[5] = system: Rat 6 (R6T24) cells transfected and transformed by a c-H-ras oncogene; assay: Screening for cytotoxicity, cell count by Coulter Counter, R6T24 cells; conditions: R6T24 cell line; for LD50 (Day 3) R6T24: day 3 after addition; for LD50 (Day 6) R6T24: day 6 after addition
Description: as §3

Compound	LD50 SW 480 [1] [nM]	LD50 HT 29 [2] [nM]	LD50 B16F18 [3] [nM]	LD50 (Day 3) R6 ([4]; Table V) [µM]	LD50 (Day 6) R6 ([4]; Table V) [µM]	LD50 (Day 3) R6 ([4]; Table VA) [µM]	LD50 (Day 6) R6 ([4]; Table VA) [µM]	LD50 (Day 3) R6T24 ([5]; Table V) [µM]	LD50 (Day 6) R6T24 ([5]; Table V) [µM]	LD50 (Day 3) R6T24 ([5]; Table VA) [µM]	LD50 (Day 6) R6T24 ([5]; Table VA) [µM]
10α and β-[(2′-naphthylmethyl)oxy]dihydroartemisinin [Example 13β]	300	600	400	–	–	–	–	–	–	–	–
COc1cc(OC)c(C2OC3OC4(C)CCC5C(C)CCC(C2C)C35OO4)c(OC)c1 (mixture of isomers) [Example 27]	–	–	–	0.57	1.10	0.57	1.10	0.67	0.26	0.67	0.26
CO[C@H]1O[C@@H]2O[C@@]3(C)CC[C@H]4[C@H](C)CC[C@@H]([C@H]1C)[C@@]24OO3 [Artemether, artemether, reference compound]	–	–	–	>100.00	1.0	>100	0.6	>100.00	1.8	>100	0.71
CC1CCC2[C@@H](C)C(=O)OC3O[C@]4(C)CCC1C32OO4 (some centres unmarked) [Artemisinin, artemisinin, reference compound]	–	–	–	>100.00	4.08	>100.00	4.08	3.09	1.75	3.49	1.75
C[C@H]1[C@H](OC(=O)CCC(=O)O)O[C@@H]2O[C@@]3(C)CC[C@H]4[C@H](C)CC[C@@H]1[C@@]24OO3 [Artesunate, artesunate, reference compound]	–	–	–	2.80	2.06	2.80	2.08	1.77	1.04	1.77	1.04
CC[C@@]1(O)C(=O)OCc2c1cc1n(c2=O)Cc2cc3ccccc3nc2-1 [CAMPTOTHECIN, reference compound]	9	4	30	–	–	–	–	–	–	–	–
CC1CCC2[C@@H](C)C(=O)N(Cc3ccccc3)C3O[C@]4(C)CCC1C23O4 (some centres unmarked) [D, reference compound]	–	–	–	>50.00	>50.00	>50	>50	>50.00	>50.00	>50	>50
CC1CCC2C(C)C(F)OC3OC4(C)CCC1C32OO4 (stereo not drawn) [Example 1, 10β-fluoro-10-deoxodihydroartemisinin]	–	–	–	1.18	1.63	1.28	1.62	1.93	0.61	1.93	0.61
CC1CCC2C(C)C(Oc3ccnc4cc(C(F)(F)F)ccc34)OC3OC4(C)CCC1C32OO4 (stereo not drawn) [Example 12, 10β-[4′-(7′-trifluoromethyl-quinolinoxy)]dihydroartemisinin]	150	2000	300	–	–	–	–	–	–	–	–
CC1CC[C@H]2[C@@H](C)C(=O)NC3O[C@]4(C)CCC1C32OO4 (some centres unmarked) [Example 14, 11-azaartemisinin]	–	–	–	>50.00	1.22	>50	1.22	0.18	0.09	0.18	0.09
CC1CCC2C(CN(Cc3ccccc3)Cc3ccccc3)C(=O)OC3OC4(C)CCC1C32OO4 (centres unmarked) [Example 17, 9-(N,N-dibenzylaminomethyl)artemisinin]	–	–	–	1.57	2.58	–	–	1.81	0.54	–	–
CCOC(=O)CCC1C(=O)OC2OC3(C)CCC4C(C)CCC1C24OO3 (centres unmarked) [Example 19, 9-[2-(ethoxycarbonyl)ethyl]artemisinin]	–	–	–	52.00	59.00	–	–	28.12	24.95	–	–
C[C@@H]1CC[C@H]2[C@@H](C)C(c3ccc4ccccc4c3)O[C@@H]3O[C@@]4(C)CC[C@@H]1[C@]32OO4 (some centres unmarked) [Example 28]	150	300	300	–	–	–	–	–	–	–	–
C[C@@H]1CC[C@H]2[C@@H](C)C(Nc3ccc(F)cc3)O[C@@H]3O[C@@]4(C)CC[C@@H]1[C@]32OO4 (some centres unmarked) [Example 31]	–	–	–	0.34	0.27	0.34	0.27	0.23	0.14	0.23	0.14
C[C@@H]1CC[C@H]2[C@@H](C)C(N3CCN(C)CC3)O[C@@H]3O[C@@]4(C)CC[C@@H]1[C@]32OO4 (some centres unmarked) [Example 51]	–	–	–	–	–	0.33	0.12	–	–	0.33	0.11
C[C@@H]1CC[C@H]2[C@@H](C)C(OC(=O)c3c4ccccc4nc4ccccc34)O[C@@H]3O[C@@]4(C)CC[C@@H]1[C@]32OO4 (some centres unmarked) [Example 65]	–	–	–	2.73	2.52	–	–	3.21	1.60	–	–
CC1CCC2C(C)C(OC(=O)c3ccc4c(c3)C(=O)c3ccccc3C4=O)OC3OC4(C)CCC1C32OO4 (centres unmarked) [Example 66]	–	–	–	0.34	3.60	0.34	3.6	0.32	0.32	0.32	0.32
CC1CCC2C(C)C(OCc3cccc4c3ccc3ccccc34)OC3OC4(C)CCC1C32OO4 (centres unmarked) [Example 82]	–	–	–	–	–	0.12	0.12	–	–	0.05	0.06
C[C@@H]1CC[C@H]2[C@@H](C)C(=O)N(Cc3cccc(F)c3)[C@@H]3O[C@@]4(C)CC[C@@H]1[C@@]23OO4 [Example 87]	–	–	–	>50.00	17.5	–	–	6.14	1.07	–	–
C[C@@H]1CC[C@H]2[C@@H](C)C(=O)N(Cc3ccccc3)[C@@H]3O[C@@]4(C)CC[C@@H]1[C@@]23OO4 [Example 88]	–	–	–	46.67	18.49	47.0	18.49	10.45	5.24	10.45	5.24
